Values of other authors as cited in patent US9433208B2, “Crop oil concentrate adjuvants containing amine surfactants” (Huntsman Petrochemical LLC, priority 2004, dated 2016).
Read-outs that look alike come from different tables or passages of the source.

CNC(=O)CSP(=S)(OC)OC [Cygon, dimethoate]
time to lose 50 percent of its pest control power (mixed in water of pH 9): 48 min
time to lose 50 percent of its pest control power (pH of 6): 720 min
